Source: ChEMBL document CHEMBL5375962 (J Med Chem, 2023)
Converted amounts (≈) assume the structure as drawn.

Columns and labels:
[1] = Inhibition of mouse KHK-A
[2] = Permeability in MDCK cells assessed as drug transport measured over 1 hr in presence of P-gp; format: ADME, cell-based, Canis lupus familiaris; details: dog
[3] = AUC in rat at 1 mg/kg, iv measured after 12 hrs; format: ADME, organism-based; design: time 12 hrs, dose 1 mg/kg, route iv; details: in vivo
[4] = Drug distribution in mouse kidney at 30 mg/kg, po measured at 180 mins; format: ADME, organism-based; details: in vivo, 3 h
[5] = Unbound fraction in mouse plasma at 1 uM; format: ADME, cell-free
[6] = Half life in dog at 1 mg/kg, iv; format: ADME, organism-based, Canis lupus familiaris; details: in vivo
[7] = Tmax in rat at 2 mg/kg, po measured after 12 hrs; format: ADME, organism-based; details: in vivo
[8] = Metabolic stability in dog liver microsomes assessed as compound degradation measured after 30 mins; format: ADME, Canis lupus familiaris, Microsome; details: read-out: Drug degradation
[9] = Half life in rat at 2 mg/kg, po measured after 12 hrs; format: ADME, organism-based; details: in vivo
[10] = Half life in dog at 2 mg/kg, po; format: ADME, organism-based, Canis lupus familiaris; details: in vivo
[11] = Unbound fraction in dog plasma at 1 uM; format: ADME, cell-free, Canis lupus familiaris
[12] = tested on: Mus musculus; assay: Reduction in fructose level in 5 hrs fasted C57B6 mouse by measuring pharmacodynamic response administered via oral gavage for 30 mins followed by oral fructose challenge and measured upto 180 mins by oral fructose tolerance test; format: functional; details: dose 30-100 mg/kg, time […]
[13] = Cmax in rat at 1 mg/kg, iv measured after 12 hrs; format: ADME, organism-based; design: dose 1 mg/kg, time 12 hrs, route iv; details: in vivo
[14] = Thermodynamic solubility of the compound […] at pH 7.4; format: physicochemical; details: read-out: Therm_solubility
[15] = Drug distribution in mouse liver at 30 mg/kg, po measured at 180 mins; format: ADME, organism-based; details: in vivo, 3 h
[16] = Clearance in dog at 1 mg/kg, iv; format: ADME, organism-based, Canis lupus familiaris; details: in vivo
[17] = Metabolic stability in rat liver microsomes assessed as compound degradation measured after 30 mins; format: ADME, Microsome; details: read-out: Drug degradation
[18] = Unbound fraction in rat plasma at 1 uM; format: ADME, cell-free
[19] = Metabolic stability in mouse liver microsomes assessed as compound degradation measured after 30 mins; format: ADME, Microsome; details: read-out: Drug degradation
[20] = Clearance in human hepatocytes measured per 10^6 cells; format: ADME, cell-based, Hepatocyte; details: read-out: CLH
[21] = AUC in rat at 2 mg/kg, po measured after 12 hrs; format: ADME, organism-based; design: time 12 hrs, dose 2 mg/kg, route po; details: in vivo
[22] = Volume of distribution in rat at 1 mg/kg, iv measured after 12 hrs; format: ADME, organism-based; details: in vivo
[23] = Drug distribution in mouse heart at 30 mg/kg, po measured at 180 mins; format: ADME, organism-based; details: in vivo, 3 h
[24] = biological target: T1, Ketohexokinase (Homo sapiens, UniProt P50053); assay: Inhibition of human KHK-C preincubated for 15 mins followed by substrate addition and measured after 20 mins in presence of ATP by Rapidfire MS analysis
T1 sequence (P50053 whole entry): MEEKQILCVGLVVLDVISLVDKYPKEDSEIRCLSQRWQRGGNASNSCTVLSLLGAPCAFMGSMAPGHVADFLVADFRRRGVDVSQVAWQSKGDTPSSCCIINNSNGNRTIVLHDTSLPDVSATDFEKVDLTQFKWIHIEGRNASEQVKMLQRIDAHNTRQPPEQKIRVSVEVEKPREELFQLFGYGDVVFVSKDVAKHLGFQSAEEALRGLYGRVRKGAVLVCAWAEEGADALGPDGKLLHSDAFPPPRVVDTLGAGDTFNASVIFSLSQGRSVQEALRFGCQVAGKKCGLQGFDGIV

[25] = biological target: T1, Ketohexokinase; assay: Inhibition of KHK in human HepG2 cells incubated for 3 hrs by Rapidfire MS analysis; format: cell-based
[26] = AUC in dog at 2 mg/kg, po; format: ADME, organism-based, Canis lupus familiaris; design: dose 2 mg/kg, route po; details: in vivo
[27] = tested on: Hepatocyte; assay: Cytotoxicity against rat Primary hepatocyte; format: toxicity, cell-based; details: hepatocytes
[28] = Cmax in rat at 2 mg/kg, po measured after 12 hrs; format: ADME, organism-based; design: time 12 hrs, dose 2 mg/kg, route po; details: in vivo
[29] = Tmax in dog at 2 mg/kg, po; format: ADME, organism-based, Canis lupus familiaris; details: in vivo
[30] = Metabolic stability in human liver microsomes assessed as compound degradation measured after 30 mins; format: ADME, Microsome; details: read-out: Drug degradation
[31] = AUC in dog at 1 mg/kg, iv; format: ADME, organism-based, Canis lupus familiaris; design: dose 1 mg/kg, route iv; details: in vivo
[32] = Cmax in dog at 2 mg/kg, po; format: ADME, organism-based, Canis lupus familiaris; design: dose 2 mg/kg, route po; details: in vivo
[33] = Oral bioavailability in dog at 2 mg/kg; format: ADME, organism-based, Canis lupus familiaris; details: in vivo
[34] = Oral bioavailability in rat at 2 mg/kg measured after 12 hrs; format: ADME, organism-based; details: in vivo
[35] = Cmax in dog at 1 mg/kg, iv; format: ADME, organism-based, Canis lupus familiaris; design: dose 1 mg/kg, route iv; details: in vivo
[36] = Clearance in dog hepatocytes measured per 10^6 cells; format: ADME, cell-based, Canis lupus familiaris, Hepatocyte; details: read-out: CLH
[37] = Half life in rat at 1 mg/kg, iv measured after 12 hrs; format: ADME, organism-based; details: in vivo
[38] = Volume of distribution in dog at 1 mg/kg, iv; format: ADME, organism-based, Canis lupus familiaris; details: in vivo
[39] = Clearance in rat at 1 mg/kg, iv measured after 12 hrs; format: ADME, organism-based; details: in vivo
[40] = Clearance in rat hepatocytes measured per 10^6 cells; format: ADME, cell-based, Hepatocyte; details: read-out: CLH
[41] = Unbound fraction in human plasma at 1 uM; format: ADME, cell-free

Structure (SMILES): C[C@H]1CCN1c1nc(-c2cnn(CC(=O)N3CCNCC3)c2)cc(C(F)(F)F)n1 [LY-3522348]
- IC50 [1]: 14 nM
- Drug transport [2]: 4.4%
- AUC at 12 h [3]: 7.06 µM·h
- Drug uptake [4]: Active
- fraction unbound at 1 µM [5]: 0.15
- half-life [6]: 28 h
- Tmax [7]: 4.7 h
- metabolised at 0.5 h [8]: 28%
- half-life [9]: 13 h
- half-life [10]: 37 h
- fraction unbound at 1 µM [11]: 0.24
- Activity [12]: Dose-Dependent Effect
- Cmax [13]: 942 nM
- solubility thermodynamic [14]: 520 µg/mL (≈ 1270 µM)
- Drug uptake [15]: Active
- clearance [16]: 3 mL/min/kg
- metabolised at 0.5 h [17]: 18%
- fraction unbound at 1 µM [18]: 0.18
- metabolised at 0.5 h [19]: 17%
- hepatocyte CLint [20]: < 1.8 µL/min/1e6 cells
- AUC at 12 h [21]: 11.6 µM·h
- Vd [22]: 6.5 L/kg
- Drug uptake [23]: Active
- IC50 [24]: 20 nM
- IC50 [25]: 41 nM
- AUC [26]: 23.2 µM·h
- LC20 [27]: > 50000 nM
- Cmax [28]: 717 nM
- Tmax [29]: 1.7 h
- metabolised at 0.5 h [30]: 0%
- AUC [31]: 12.9 µM·h
- Cmax [32]: 657 nM
- bioavailability [33]: 87%
- bioavailability [34]: 83%
- Cmax [35]: 3000 nM
- hepatocyte CLint [36]: < 1.8 µL/min/1e6 cells
- half-life [37]: 13 h
- Vd [38]: 7.8 L/kg
- clearance [39]: 6 mL/min/kg
- hepatocyte CLint [40]: 2.2 µL/min/1e6 cells
- fraction unbound at 1 µM [41]: 0.15
